Assays:
[1] = target: rat brain benzodiazepine receptors (3H-diazepam receptor); assay: benzodiazepine receptor binding test in vitro (inhibition of specific 3H-diazepam binding to rat brain membranes); conditions: Ki = IC50/(1+C/KD), read-out: Ki (inhibitor constant, 3H-diazepam binding)
Text: The pharmacological properties of the compounds of the present invention were first investigated by submitting them to the benzodiazepine receptor binding test in vitro.

[2] = tested on: male rats of the CFHB Wistar strain; assay: conditioned avoidance test (secondary conditioned response, pole climbing); format: in vivo, rat (CFHB Wistar); conditions: intraperitoneally, doses of between about 1/30 and 1/10 of the corresponding LD50s
Experimental: (§1) Some of the compounds of the above list were also tested in vivo in those pharmacological tests thought to be predictive of anxiolytic activity in man. Classical pharmacological tests employed to confirm the antianxiety activity were the conditioned avoidance test and the antipentylenetetrazole test in mice. The conditioned avoidance test was carried out according to the method described by Cook and Weidley in Ann. N.Y. Acad. Sci. 1957, 66, 740, and subsequently modified by Maffii (J. Pharm. and Pharmacol., 1959, 11, 129-139). In this procedure a rat is placed in a chamber with a grid floor through which electric shocks may be delivered. This chamber is also equipped with a buzzer and with a wooden pole, electrically isolated, which is suspended from the top of the experimental chamber.
The animal soon learns to escape the shock by climbing the pole (unconditioned response--U.R.) and by climbing the pole in response to the buzzer alone (conditioned avoidance response--CR). After further exposure to the situation, the rat becomes conditioned and climbs the pole before the buzzer is activated; when this response becomes stable, the rat is considered to have developed a secondary conditioned response (CR2).
(§2) The drug to be studied is then administered to these long-trained animals and its deconditioning effect is evaluated. […] Moreover, the activity of some of the compounds of the present invention has been tested in the antipentylenetetrazole test in mice. The experiments have been carried out by following essentially the methodology described by Berger in J. Pharm. Exptl. Ther. 104, 468, (1952). More particularly, a fatal dose of pentylentetrazole (140 mg/kg s.c.) was administered to groups of ten mice each, 30 minutes after a selected dose of the potential anticonvulsant compound. […] Since the animals of the control group died within 30 minutes, the effectiveness of the compounds tested at each dose tested was expressed as the number of animals of the group which were still alive two hours after the administration of pentylenetetrazole, out of the total number of animals of the group (10).

[3] = LD50 (acute toxicity, i.p.); conditions: in vivo, ip
[4] = tested on: mice (pentylenetetrazole-induced death); assay: antipentylenetetrazole test in mice; format: in vivo; conditions: pentylenetetrazole 140 mg/kg s.c. 30 min later, alive after 2 hours
Experimental: as §1, §2

SMILES | Ki [1] [nM] | effect on primary conditioned and unconditioned responses (CR and U.R.) [2] | effect on secondary conditioned response (CR2) [2] | other results
c1ccc(-c2nnc3c4ccccc4c(N4CCCC4)nn23)cc1 [Example 27, 3-phenyl-6-(1-pyrrolidinyl)-1,2,4-triazolo[3,4-a]phthalazine] | 16 | – | – | –
CC(O)CN(C)c1nn2c(-c3ccccc3)nnc2c2ccccc12 (stereo not drawn) [Example 29] | 28 | – | – | –
c1ccc(-c2nnc3c4ccccc4c(N4CCOCC4)nn23)cc1 [Example 30] | 18 | without influencing the primary conditioned and the unconditioned responses (CR and U.R.) | effective in inhibiting the secondary conditioned response (CR2) | –
COc1ccc(-c2nnc3c4ccccc4c(N(C)CC(C)O)nn23)cc1 (stereo not drawn) [Example 31] | 17 | without influencing the primary conditioned and the unconditioned responses (CR and U.R.) | effective in inhibiting the secondary conditioned response (CR2) | LD50 [3]: ≥ 300 mg/kg; Protected/treated ([4]; dose 10 mg/kg i.p.): 6/10; Protected/treated ([4]; dose 20 mg/kg i.p.): 9/10
COc1ccc(-c2nnc3c4ccccc4c(N(C)CCCO)nn23)cc1 [Example 32, N-(3-hydroxypropyl)-N-methyl-3-(4-methoxyphenyl)-1,2,4-triazolo[3,4-a]phthalazin-6-amine] | 0.968 | – | – | –
CNc1nn2c(-c3ccccc3)nnc2c2ccccc12 [Example 35] | 46 | – | – | –
CCNc1nn2c(-c3ccccc3)nnc2c2ccccc12 [Example 36] | 48 | – | – | –
CN(C)c1nn2c(-c3ccccc3)nnc2c2ccccc12 [Example 41] | 21 | – | – | –
CCN(CC)c1nn2c(-c3ccccc3)nnc2c2ccccc12 [Example 42] | 57 | – | – | –
c1ccc(-c2nnc3c4ccccc4c(N4CCCCC4)nn23)cc1 [Example 43] | 16 | – | – | –
CN1CCN(c2nn3c(-c4ccccc4)nnc3c3ccccc23)CC1 [Example 44] | 57 | – | – | –
CC1(C)CN(c2nn3c(-c4ccccc4)nnc3c3ccccc23)C1 [Example 45] | 32 | without influencing the primary conditioned and the unconditioned responses (CR and U.R.) | effective in inhibiting the secondary conditioned response (CR2) | –
CCN(C)c1nn2c(-c3ccccc3)nnc2c2ccccc12 [Example 46] | 14 | – | – | –
COc1ccc(-c2nnc3c4ccccc4c(N4CCCC4)nn23)cc1 [Example 47] | 3.9 | – | – | –
CC(=O)Nc1ccc(-c2nnc3c4ccccc4c(N4CCCC4)nn23)cc1 [Example 51] | 40 | – | – | –
COc1ccc(-c2nnc3c4ccccc4c(N4CCCC4)nn23)cc1OC [Example 54] | – | without influencing the primary conditioned and the unconditioned responses (CR and U.R.) | effective in inhibiting the secondary conditioned response (CR2) | –
Fc1ccc(-c2nnc3c4ccccc4c(N4CCCC4)nn23)cc1 [Example 64] | 20 | – | – | –
COCCN(CCOC)c1nn2c(-c3ccc(OC)cc3)nnc2c2ccccc12 [Example 67] | 2.7 | without influencing the primary conditioned and the unconditioned responses (CR and U.R.) | effective in inhibiting the secondary conditioned response (CR2) | LD50 [3]: ≥ 300 mg/kg; Protected/treated ([4]; dose 5 mg/kg i.p.): 4/10; Protected/treated ([4]; dose 10 mg/kg i.p.): 8/10

SMILES | Ki [1] [nM] | effect on primary conditioned and unconditioned responses (CR and U.R.) [2] | effect on secondary conditioned response (CR2) [2] | other results
CCOC(=O)C1CCN(c2nn3c(-c4ccc(OC)cc4)nnc3c3ccccc23)CC1 [Example 72] | 1.5 | without influencing the primary conditioned and the unconditioned responses (CR and U.R.) | effective in inhibiting the secondary conditioned response (CR2) | –
CC1CC(C)CN(c2nn3c(-c4ccccc4)nnc3c3ccccc23)C1 (stereo not drawn) [Example 73] | 210 | without influencing the primary conditioned and the unconditioned responses (CR and U.R.) | effective in inhibiting the secondary conditioned response (CR2) | –
Oc1ccc(-c2nnc3c4ccccc4c(N4CCCC4)nn23)cc1 [Example 74] | 17 | – | – | –
Nc1ccc(-c2nnc3c4ccccc4c(N4CCCC4)nn23)cc1 [Example 75] | 29 | – | – | –
COc1ccc(-c2nnc3c4ccccc4c(N4CCC(O)C4)nn23)cc1 (stereo not drawn) [Example 79] | 2.7 | – | – | –
CCOc1nn2c(-c3ccccc3)nnc2c2ccccc12 [Example 85, 6-ethoxy-3-phenyl-1,2,4-triazolo[3,4-a]phthalazine] | 7.8 | – | – | –
CCCCCOc1ccc(-c2nnc3c4ccccc4c(OCC)nn23)cc1OC [Example 93] | – | without influencing the primary conditioned and the unconditioned responses (CR and U.R.) | effective in inhibiting the secondary conditioned response (CR2) | –
CCOc1nn2c(-c3ccc(OC)cc3)nnc2c2ccccc12 [Example 101] | 2.9 | – | – | –
COc1ccc(-c2nnc3c4ccccc4c(OCCCCO)nn23)cc1 [Example 103, 6-(4-hydroxybutoxy)-3-(4-methoxyphenyl)-1,2,4-triazolo[3,4-a]phthalazine] | 0.427 | – | – | –
CCOC(=O)CCCOc1nn2c(-c3ccc(OC)cc3)nnc2c2ccccc12 [Example 104, 4[[3-(4-methoxyphenyl)-1,2,4-triazolo[3,4-a]phthalazin-6-yl]oxy]butanoic acid ethyl ester] | 0.806 | – | – | –
COCCOc1nn2c(-c3ccc(OC)cc3)nnc2c2ccccc12 [Example 105, 6-(2-methoxyethoxy)-3-(4-methoxyphenyl)-1,2,4-triazolo[3,4-a]phthalazine] | 0.9 | without influencing the primary conditioned and the unconditioned responses (CR and U.R.) | effective in inhibiting the secondary conditioned response (CR2) | LD50 [3]: ~500 mg/kg; Protected/treated ([4]; dose 15 mg/kg i.p.): 3/10; Protected/treated ([4]; dose 25 mg/kg i.p.): 8/10
COc1ccc(-c2nnc3c4ccccc4c(N(C)CCCC#N)nn23)cc1 [Example 107, 4-[[3-(4-methoxyphenyl)-1,2,4-triazolo [3,4-a]phthalazin-6-yl]methylamino]butanonitrile] | 0.565 | – | – | –
CCOC(=O)CCCN(C)c1nn2c(-c3ccc(OC)cc3)nnc2c2ccccc12 [Example 108] | 0.524 | – | – | –
CCS(=O)(=O)c1nn2c(-c3ccccc3)nnc2c2ccccc12 [Example 112, 6-(ethyl-sulfonyl)-3-phenyl-1,2,4-triazolo[3,4-a]phthalazine] | 60 | without influencing the primary conditioned and the unconditioned responses (CR and U.R.) | effective in inhibiting the secondary conditioned response (CR2) | –
c1ccc(-c2nn3cnnc3c3ccccc23)cc1 [Example 114, 6-phenyl-1,2,4-triazolo[3,4-a]phthalazine] | – | without influencing the primary conditioned and the unconditioned responses (CR and U.R.) | effective in inhibiting the secondary conditioned response (CR2) | –
CCN(CC)CCN1C(=O)CN=C(c2ccccc2F)c2cc(Cl)ccc21 [Flurazepam, reference compound] | 8.58 | – | – | –
O=C1Nc2ccc(Cl)cc2C(c2ccccc2)=NC1O (stereo not drawn) [Oxazepam, reference compound] | 5.2 | – | – | –
